According to ChEMBL document CHEMBL5380795, “Design, Synthesis, and Bioactivity Investigation of Cyclic Lipopeptide Antibiotics Containing Eight to Nine Amino Acids” (J Med Chem, 2023):
Values after ≈ are worked out from the molar mass of the structure shown. Bridge positions count the residues as written; N and C are the ends. Square brackets hold non-standard residues; d marks the D form. Peptide text beside a SMILES is read from it. * marks the point of attachment. Decanoyl(3R-OH) = CCCCCCC[C@@H](O)CC(=O)*; X1 = CC[C@H](C)CCCCC(=O)*; dDab = NCC[C@@H](N)C(=O)O; Dab = NCC[C@H](N)C(=O)O

Experiments:
[1] = test system: Pseudomonas aeruginosa; experiment: Antibacterial activity against Pseudomonas aeruginosa ATCC 27853 assessed as inhibition of bacterial growth incubated for 18 to 24 hrs by broth microdilution method; type: functional; conditions: time 18-24 hrs
[2] = test system: Pseudomonas aeruginosa; experiment: Antibacterial activity against carbapenem resistant Pseudomonas aeruginosa clinical isolate 17-1 assessed as inhibition of bacterial growth incubated for 18 to 24 hrs by broth microdilution method; type: functional; conditions: time 18-24 hrs
[3] = test system: Escherichia coli; experiment: Antibacterial activity against KPC producing Escherichia coli ATCC BAA-2340 assessed as inhibition of bacterial growth incubated for 18 to 24 hrs by broth microdilution method; type: functional; conditions: time 18-24 hrs
[4] = Plasma protein binding in human at 2 uM incubated for 6 hrs by equilibrium dialysis based LC-MS/MS analysis; type: ADME, cell-free; conditions: read-out: PPB (converted)
[5] = test system: Escherichia coli; experiment: Antibacterial activity against Escherichia coli; type: functional
[6] = test system: Pseudomonas aeruginosa; experiment: Antibacterial activity against Pseudomonas aeruginosa clinical isolate 19-1 assessed as inhibition of bacterial growth incubated for 18 to 24 hrs by broth microdilution method; type: functional; conditions: time 18-24 hrs
[7] = Selectivity index, ratio of IC50 for cytotoxicity against human HK-2 cells to MIC for antibacterial activity against Escherichia coli ATCC BAA-2523; type: toxicity, cell-based
[8] = test system: Klebsiella pneumoniae; experiment: Antibacterial activity against carbapenem resistant Klebsiella pneumoniae clinical isolate 19-15 assessed as inhibition of bacterial growth incubated for 18 to 24 hrs by broth microdilution method; type: functional; conditions: time 18-24 hrs
[9] = test system: Pseudomonas aeruginosa; experiment: Antibacterial activity against Pseudomonas aeruginosa; type: functional
[10] = test system: Staphylococcus epidermidis; experiment: Antibacterial activity against methicillin resistant Staphylococcus epidermidis clinical isolate 19-6 assessed as inhibition of bacterial growth incubated for 18 to 24 hrs by broth microdilution method; type: functional; conditions: time 18-24 hrs
[11] = test system: Staphylococcus epidermidis; experiment: Antibacterial activity against Staphylococcus epidermidis; type: functional
[12] = test system: Staphylococcus aureus; experiment: Antibacterial activity against methicillin resistant Staphylococcus aureus ATCC 33591 assessed as inhibition of bacterial growth incubated for 18 to 24 hrs by broth microdilution method; type: functional; conditions: time 18-24 hrs
[13] = test system: Staphylococcus aureus; experiment: Antibacterial activity against Staphylococcus aureus; type: functional
[14] = test system: Escherichia coli; experiment: Antibacterial activity against Escherichia coli clinical isolate 19-2 assessed as inhibition of bacterial growth incubated for 18 to 24 hrs by broth microdilution method; type: functional; conditions: time 18-24 hrs
[15] = Cytotoxicity against human HK-2 cells assessed as inhibition of cell growth incubated for 72 hrs by CCK-8 assay; type: toxicity, cell-based
[16] = test system: Klebsiella pneumoniae; experiment: Antibacterial activity against KPC producing Klebsiella pneumoniae ATCC BAA-1705 assessed as inhibition of bacterial growth incubated for 18 to 24 hrs by broth microdilution method; type: functional; conditions: time 18-24 hrs
[17] = test system: Klebsiella pneumoniae; experiment: Antibacterial activity against Klebsiella pneumoniae; type: functional
[18] = test system: Staphylococcus aureus; experiment: Antibacterial activity against Staphylococcus aureus ATCC 29213 assessed as inhibition of bacterial growth incubated for 18 to 24 hrs by broth microdilution method; type: functional; conditions: time 18-24 hrs
[19] = test system: Acinetobacter baumannii; experiment: Antibacterial activity against Acinetobacter baumannii; type: functional
[20] = test system: Acinetobacter baumannii; experiment: Antibacterial activity against oxacillinase-27 producing Acinetobacter baumannii NCTC 13304 assessed as inhibition of bacterial growth incubated for 18 to 24 hrs by broth microdilution method; type: functional; conditions: time 18-24 hrs
[21] = test system: Candida albicans; experiment: Antifungal activity against Candida albicans; type: functional
[22] = test system: Klebsiella pneumoniae; experiment: Antibacterial activity against carbapenem resistant Klebsiella pneumoniae clinical isolate 19-17 assessed as inhibition of bacterial growth incubated for 18 to 24 hrs by broth microdilution method; type: functional; conditions: time 18-24 hrs
[23] = test system: Escherichia coli; experiment: Antibacterial activity against Escherichia coli ATCC BAA-2523 assessed as inhibition of bacterial growth incubated for 18 to 24 hrs by broth microdilution method; type: functional; conditions: time 18-24 hrs
[24] = test system: Pseudomonas aeruginosa; experiment: Antibacterial activity against carbapenem resistant Pseudomonas aeruginosa clinical isolate 19-3 assessed as inhibition of bacterial growth incubated for 18 to 24 hrs by broth microdilution method; type: functional; conditions: time 18-24 hrs
[25] = test system: Escherichia coli; experiment: Antibacterial activity against Escherichia coli NCTC 13353 assessed as inhibition of bacterial growth incubated for 18 to 24 hrs by broth microdilution method; type: functional; conditions: time 18-24 hrs
[26] = test system: Staphylococcus epidermidis; experiment: Antibacterial activity against methicillin resistant Staphylococcus epidermidis clinical isolate 19-5 assessed as inhibition of bacterial growth incubated for 18 to 24 hrs by broth microdilution method; type: functional; conditions: time 18-24 hrs
[27] = test system: Acinetobacter baumannii; experiment: Antibacterial activity against carbapenem resistant Acinetobacter baumannii clinical isolate 19-8 assessed as inhibition of bacterial growth incubated for 18 to 24 hrs by broth microdilution method; type: functional; conditions: time 18-24 hrs
[28] = test system: Escherichia coli; experiment: Antibacterial activity against Escherichia coli ATCC 25922 assessed as inhibition of bacterial growth incubated for 18 to 24 hrs by broth microdilution method; type: functional; conditions: time 18-24 hrs

| Structure (SMILES) | MIC [1] [µg/mL] | MIC [2] [µg/mL] | MIC [3] [µg/mL] | MIC [5] [µg/mL] | MIC [6] [µg/mL] | MIC [8] [µg/mL] | MIC [9] [µg/mL] | MIC [10] [µg/mL] | MIC [12] [µg/mL] | MIC [14] [µg/mL] | MIC [16] [µg/mL] | MIC [17] [µg/mL] | MIC [18] [µg/mL] | MIC [19] [µg/mL] | MIC [20] [µg/mL] | MIC [22] [µg/mL] | MIC [23] [µg/mL] | MIC [24] [µg/mL] | MIC [25] [µg/mL] | MIC [26] [µg/mL] | further results |
| --- | --- | --- | --- | --- | --- | --- | --- | --- | --- | --- | --- | --- | --- | --- | --- | --- | --- | --- | --- | --- | --- |
| CCCCCCC[C@@H](O)CC(=O)N[C@H](CCN)C(=O)N[C@H]1CCNC(=O)[C@H](CC(C)C)NC(=O)[C@H](CCN)NC(=O)[C@H](CCN)NC(=O)[C@H](CC(C)C)NC(=O)[C@@H](Cc2ccccc2)NC(=O)[C@H](CCN)NC1=O ({Decanoyl(3R-OH)}-[dDab][Dab][Dab][dF]L[Dab][Dab]L; lactam 2-C) | 2 (≈ 1.92 µM) | 2 (≈ 1.92 µM) | 2 (≈ 1.92 µM) | 0.1 (≈ 0.0958 µM) | 2 (≈ 1.92 µM) | 8 (≈ 7.66 µM) | 0.4 (≈ 0.383 µM) | 4 (≈ 3.83 µM) | 16 (≈ 15.3 µM) | 16 (≈ 15.3 µM) | 8 (≈ 7.66 µM) | 0.78 (≈ 0.747 µM) | 16 (≈ 15.3 µM) | 4 (≈ 3.83 µM) | 8 (≈ 7.66 µM) | 8 (≈ 7.66 µM) | 8 (≈ 7.66 µM) | 4 (≈ 3.83 µM) | 8 (≈ 7.66 µM) | 2 (≈ 1.92 µM) | fraction unbound at 6 h, 2 µM [4]: 0.0805; selectivity ratio [7]: 1.8; MIC [11]: 0.6 µg/mL (≈ 0.575 µM); MIC [13]: 3.1 µg/mL (≈ 2.97 µM); IC50 at 72 h [15]: 14.2 µg/mL (≈ 13.6 µM); MIC [21]: 4.7 µg/mL (≈ 4.5 µM); MIC [27]: 4 µg/mL (≈ 3.83 µM) |
| CC[C@H](C)CCCCC(=O)N[C@@H](CCN)C(=O)N[C@H](C(=O)N[C@@H](CCN)C(=O)N[C@H]1CCNC(=O)[C@H]([C@@H](C)O)NC(=O)[C@H](CCN)NC(=O)[C@H](CCN)NC(=O)[C@H](CC(C)C)NC(=O)[C@@H](Cc2ccccc2)NC(=O)[C@H](CCN)NC1=O)[C@@H](C)O (X1-[Dab]T[Dab][Dab][Dab][dF]L[Dab][Dab]T; lactam 4-C) | 0.5 (≈ 0.415 µM) | 0.25 (≈ 0.208 µM) | ≤ 0.06 | 0.05 (≈ 0.0415 µM) | 0.25 (≈ 0.208 µM) | 0.125 (≈ 0.104 µM) | 0.2 (≈ 0.166 µM) | 16 (≈ 13.3 µM) | > 64 | ≤ 0.06 | ≤ 0.06 | 1 (≈ 0.831 µM) | > 64 | 1 (≈ 0.831 µM) | ≤ 0.06 | 0.25 (≈ 0.208 µM) | < 0.06 | 0.125 (≈ 0.104 µM) | 0.5 (≈ 0.415 µM) | 4 (≈ 3.32 µM) | MIC [28]: 0.25 µg/mL (≈ 0.208 µM); MIC [27]: ≤ 0.06 µg/mL |
| CCCCCCC[C@@H](O)CC(=O)N[C@H](CCN)C(=O)N[C@H]1CCNC(=O)[C@H](CC(C)C)NC(=O)[C@H](CCN)NC(=O)[C@H](CCN)NC(=O)[C@H](CC(C)C)NC(=O)[C@@H](CC(C)C)NC(=O)[C@H](CCN)NC1=O | 1 (≈ 0.99 µM) | 2 (≈ 1.98 µM) | 8 (≈ 7.92 µM) | 0.1 (≈ 0.099 µM) | 2 (≈ 1.98 µM) | 16 (≈ 15.8 µM) | 0.4 (≈ 0.396 µM) | 16 (≈ 15.8 µM) | > 64 | 16 (≈ 15.8 µM) | 16 (≈ 15.8 µM) | 0.78 (≈ 0.772 µM) | > 64 | 4 (≈ 3.96 µM) | 8 (≈ 7.92 µM) | 16 (≈ 15.8 µM) | 16 (≈ 15.8 µM) | 4 (≈ 3.96 µM) | 16 (≈ 15.8 µM) | 2 (≈ 1.98 µM) | fraction unbound at 6 h, 2 µM [4]: 0.0216; selectivity ratio [7]: 3.8; MIC [11]: 0.6 µg/mL (≈ 0.594 µM); MIC [13]: 3.1 µg/mL (≈ 3.07 µM); IC50 at 72 h [15]: 60.7 µg/mL (≈ 60.1 µM); MIC [21]: 4.7 µg/mL (≈ 4.65 µM); MIC [27]: 4 µg/mL (≈ 3.96 µM) |
